Assay results published in US5599548A, “Skin care compositions containing fatty acid amides and retinol or retinyl ester” (priority 1995, dated 1997).
Like-named read-outs stand apart in the source and are kept apart here.

Columns and labels:
[1] = system: TGase I (keratinocyte transglutaminase level); assay: Transglutaminase (TGase I) ELISA assay (keratinocyte differentiation); assay type: cell-based, human; conditions: for activity at 0.1 µM / mean TGase level ± s.d: 72 h, ROH 2.5 × 10^-7 M; for effect on keratinocyte TG1 levels / differentiation, in words: concentrations as in the respective Example
Procedure: (§1) Human keratinocytes, isolated from neonatal foreskin by trypsin treatment were grown in Dulbecco Modification Eagle (DME) Hams F12 (1:1) medium/10% fetal calf serum in the presence of irradiated 3T3 mouse fibroblasts for establishing dividing keratinocyte colonies. Cells were grown under the above condition until their second passage and kept frozen for future use. […] On day 7, when the cells were 80-90% confluent, they were trypsinized and plated in the serum-free medium for the various experiments.
During the process of terminal differentiation in the epidermis, a 15 nm thick layer of protein, known as the cornified envelope (CE) is formed on the inner surface of the cell periphery. The CE is composed of numerous distinct proteins which have been cross-linked together by the formation of N^ε -(γ-glutamyl) lysine isodipeptide bonds catalyzed by the action of at least two different transglutaminases (TGases) expressed in the epidermis. TGase I is expressed in abundance in the differentiated layers of the epidermis, especially the granular layer, but is absent in the undifferentiated basal epidermis. Thus TGase I is a useful marker of epidermal keratinocyte differentiation with high TGase I levels indicating a more differentiated state. An ELISA based TGase I assay, using a TGase I antibody, was used to assess the state of differentiation of the cultured keratinocytes in the examples that follow.
Keratinocytes (cultured as described above) were plated in 96 well plates at a density of 3,000 cells per well in 200 μl media. After incubation for four days the media was changed to media containing test compounds (six replicates per test). The cells were cultured for a further 72 hours after which time the media was aspirated and the plates stored at -70° C. Plates were removed from the freezer, and the cells washed with PBS. 100 μl sterile water was added and the cells were freeze fractured by freezing at -70° C. then thawing. The cells were incubated for one hour at room temperature (R/T) with PBS/3% BSA (wash buffer, bovine serum albumin), then rinsed with a fresh aliquot of wash buffer. Cells were incubated with 50 μl of primary antibodies monoclonal anti-human transglutaminase (IgG) obtained from Amersham (mouse) diluted 1:300 in wash buffer for one hour, 37° C. then rinsed two times with wash buffer. Cells were then incubated with 50 μl of secondary antibody (Feb fragment, peroxidase conjugated anti-mouse IgG obtaining from Amersham) diluted 1:200 in wash buffer for one hour at 37° C., then rinsed two times with wash buffer. Cells were incubated with substrate solution (4 mg o-phenylene diamine and 3.3 μl 30% H2 O2 in 10 ml 0.1M citrate buffer pH 5.0) for five minutes, R/T, in darkness (under aluminum foil). The reaction was stopped by the addition of 50 μl 4N H2 SO4. The absorbance of samples was read at 492 nm in the plate reader. Out of the six replicates, four were treated with both antibodies, two were treated only with the secondary antibody (i.e., to determine background binding of enzyme conjugated Ab). TGase levels were determined by subtracting background from the readings from each treatment and determining mean ±s.d. for the replicates exposed to both Ab.

Human keratinocytes = assay: 3H-Thymidine incorporation (keratinocyte proliferation); assay type: cell-based; conditions: for effect on keratinocyte proliferation, in words: concentrations as in the respective Example; for activity at 0.001 µM: Table 4D, ROH 2.5 × 10^-8 M, linoleoyl-MEA 10^-9 M; for activity at 0.001 µM / activity at 1 µM: RA; for activity at 1 µM: Table 4C, retinol 2.5 × 10^-8 M, palmitoyl-MEA 10^-6 M
Procedure: as §1
The incorporation of […] by cultured keratinocytes was used as an assay of keratinocyte proliferation. Thymidine is one of four deoxynucleosides which are the monomeric units of DNA, the universal library of genetic information in the animal kingdom. Prior to cell division of a somatic cell such as a keratinocyte, the complete genome of the cell undergoing cell division is replicated. This involves large scale DNA synthesis by the cell and enables both daughter cells to receive identical copies of the genetic material. When ^3 H-thymidine is included in the culture media of keratinocytes which are synthesizing DNA in preparation for cell division then the labelled nucleoside is incorporated into the newly synthesized DNA. The extent of incorporation of ^3 H-thymidine into a population of cells is proportional to the rate of DNA synthesis by this population of cells and therefore an indication of their cellular proliferation.
Keratinocytes (that were cultured as described above) were plated in 24 well plates at a density of 40,000 cells per well in 1 ml media. After incubation for four days or until the cells were 60-70% confluent, the media was changed. Test compounds were added (in triplicate) to the wells 24 hours after the media change, and four hours later 1μCi^3 H-Thymidine in 50 μl media was added per well. Cells were incubated for a further 24 hours. Media was removed from the cells, 10% ice cold trichloroacetic acid (TCA) added and plates were incubated on ice for 30 minutes. Cells were washed five times with 5% TCA and allowed to dissolve in 500 μl 0.1M NaOH for at least one hour (usually overnight). The preparations were neutralized with 0.1M HCl; 50 μl of the cell preparation was used to determine total protein content. Disintegrations per minute (DPM) from ^3 H labelling of DNA was determined by liquid scintillation counting of […] of the cell preparation. Thymidine incorporation results were expressed as DPM/μg protein.

## CC(N)=O [Acetamide (C2), acetamide]
[1]; Homo sapiens, Keratinocyte, Table 6B, RA, acetamide 10^-7 M, alone or combined, n = 3, read-out: TGase (TG1) level, % control
  activity at 0.1 µM: 98%
[1]; Table 6B (Effect on Keratinocyte TGase), RA, acetamide 10^-7 M, alone or combined, n = 3
  mean TGase level ± s.d: 0.480 ± 0.042
[1]
  effect on keratinocyte TG1 levels / differentiation, in words: no effect on keratinocyte TG1 levels

## NC=O [Formamide (C1), formamide]
[1]; Homo sapiens, Keratinocyte, Table 6A, RA, formamide 10^-7 M, alone or combined, n = 3, read-out: TGase (TG1) level, % control
  activity at 0.1 µM: 85%
[1]; Table 6A (Effect on Keratinocyte TGase), RA, formamide 10^-7 M, alone or combined, n = 3
  mean TGase level ± s.d: 0.413 ± 0.069
[1]
  effect on keratinocyte TG1 levels / differentiation, in words: small inhibitory effect on keratinocyte TG1 levels

## CCCCC/C=C\C/C=C\CCCCCCCC(=O)O [Linoleic acid (LA), Linoleic acid]
[1]; Homo sapiens, Keratinocyte, Table 5A, RA, retinol 2.5 × 10^-7 M, linoleic acid 10^-6 M, alone or combined, n = 3, read-out: TGase (TG1) level, % control
  activity at 1 µM: > 100%
[1]; Table 5A, RA, retinol 2.5 × 10^-7 M, linoleic acid 10^-6 M, alone or combined, n = 3
  mean TGase ± s.d: 0.161 ± 0.061
[1]
  effect on keratinocyte TG1 levels / differentiation, in words: appeared to stimulate TG1

## CCCCC/C=C\C/C=C\CCCCCCCC(=O)OC [Methyl linoleate, methyl linoleate]
[1]; Homo sapiens, Keratinocyte, Table 5B, RA, retinol 2.5 × 10^-8 M, methyl linoleate 10^-8 M, alone or combined, n = 3, read-out: TGase (TG1) level, % control
  activity at 0.01 µM: 67%
[1]; Table 5B, RA, retinol 2.5 × 10^-8 M, methyl linoleate 10^-8 M, alone or combined, n = 3
  mean TGase ± s.d: 0.193 ± 0.033
[1]
  effect on keratinocyte TG1 levels / differentiation, in words: repressed TG1 to the same extent as 2.5×10^-8 M retinol

## CCCCC(=O)N(CCO)CCO [Pentanoyl-DEA (C5-DEA)]
[1]; Homo sapiens, Keratinocyte, Table 6C, RA, pentanoyl-DEA 10^-7 M, alone or combined, n = 3, read-out: TGase (TG1) level, % control
  activity at 0.1 µM: 99%
[1]; Table 6C (Effect on Keratinocyte TGase), RA, pentanoyl-DEA 10^-7 M, alone or combined, n = 3
  mean TGase level ± s.d: 0.425 ± 0.079
[1]
  effect on keratinocyte TG1 levels / differentiation, in words: no effect on keratinocyte TG1 levels

## CCCCCCCCCCCCCCCC(=O)OC/C=C(C)/C=C/C=C(C)/C=C/C1=C(C)CCCC1(C)C [RP, retinyl palmitate]
Human keratinocytes; Homo sapiens, Keratinocyte, 24 h, Table 3A, RA 2.5 × 10^-9 M, RP 2.5 × 10^-7 M, linoleoyl-DEA 10^-8 M, alone or combined, n = 3, read-out: thymidine incorporation, % control
  activity at 0.25 µM: 111%
Human keratinocytes; Table 3A, RA 2.5 × 10^-9 M, RP 2.5 × 10^-7 M, linoleoyl-DEA 10^-8 M, alone or combined, n = 3
  mean Thymidine incorp./μg protein ± s.d: 1884 ± 64 DPM/μg protein
Human keratinocytes
  effect on keratinocyte proliferation, in words: increased keratinocyte thymidine incorporation over the control
[1]; Homo sapiens, Keratinocyte, Table 3B, RA, RP 2.5 × 10^-7 M, linoleoyl-DEA 10^-6 M, alone or combined, n = 3, read-out: TGase (TG1) level, % control
  activity at 0.25 µM: 82%
[1]; Homo sapiens, Keratinocyte, Table 8A, 2.5 × 10^-6 M, n = 3, read-out: TGase, % control
  activity at 2.5 µM: 95%
[1]; Homo sapiens, Keratinocyte, Table 8A, 2.5 × 10^-7 M, n = 3, read-out: TGase, % control
  activity at 0.25 µM: 82%
[1]; Homo sapiens, Keratinocyte, Table 8A, 2.5 × 10^-8 M, n = 3, read-out: TGase, % control
  activity at 0.025 µM: 82%
[1]; Homo sapiens, Keratinocyte, Table 8A, 2.5 × 10^-9 M, n = 3, read-out: TGase, % control
  activity at 0.0025 µM: 76%
[1]; Homo sapiens, Keratinocyte, Table 8B, 2.5 × 10^-6 M, n = 3, read-out: TGase, % control
  activity at 2.5 µM: 52%
[1]; Homo sapiens, Keratinocyte, Table 8B, 2.5 × 10^-10 M, n = 3, read-out: TGase, % control
  activity at 0.00025 µM: 108%
[1]; Table 3B, RA, RP 2.5 × 10^-7 M, linoleoyl-DEA 10^-6 M, alone or combined, n = 3
  mean TGase ± s.d: 0.177 ± 0.026
[1]; Table 8A, 2.5 × 10^-6 M, n = 3
  mean TGase ± s.d: 0.206 ± 0.034
[1]; Table 8A, 2.5 × 10^-7 M, n = 3
  mean TGase ± s.d: 0.177 ± 0.026
[1]; Table 8A, 2.5 × 10^-8 M, n = 3
  mean TGase ± s.d: 0.177 ± 0.054
[1]; Table 8A, 2.5 × 10^-9 M, n = 3
  mean TGase ± s.d: 0.165 ± 0.030
[1]; Table 8B, 2.5 × 10^-6 M, n = 3
  mean TGase ± s.d: 0.063 ± 0.019
[1]; Table 8B, 2.5 × 10^-10 M, n = 3
  mean TGase ± s.d: 0.132 ± 0.038

## CCCCC/C=C\C/C=C\CCCCCCCC(=O)NCCO [linoleoyl-MEA, linoleoyl-monoethanolamide]
Human keratinocytes; Homo sapiens, Keratinocyte, 24 h, alone or combined, 24 h, n = 3, read-out: thymidine incorporation, % control
  activity at 0.001 µM: 67%
Human keratinocytes; Homo sapiens, Keratinocyte, 24 h, alone or combined, 24 h, normalized to ethanol control, n = 3, read-out: mean Thymidine incorp./μg protein ± s.d
  activity at 0.001 µM: 67 ± 18%
Human keratinocytes
  effect on keratinocyte proliferation, in words: inhibitory effect on keratinocyte proliferation

## CCCCCCCCCCCCCCCC(=O)NCCO [palmitoyl-MEA, palmitoyl-monoethanolamide]
Human keratinocytes; Homo sapiens, Keratinocyte, 24 h, alone or combined, n = 3, read-out: thymidine incorporation, % control
  activity at 1 µM: 97%
Human keratinocytes; Homo sapiens, Keratinocyte, alone or combined, control = 1.000, n = 3, read-out: mean Thymidine incorp./μg protein ± s.d
  activity at 1 µM: 97.4 ± 8%
Human keratinocytes
  effect on keratinocyte proliferation, in words: Neither 10^-8 M palmitoyl-MEA nor 2.5×10^-8 M retinol had an effect on keratinocyte proliferation
